From patent publication US20260033988A1, “SYSTEM AND METHOD FOR ULTRASOUND-ENHANCED DELIVERY OF DRUGS” (Sonikure Holdings Limited, priority 2016, published 2026)

Tests used:
[1] = Ultrasound delivery of Riboflavin-5-Phosphate into porcine corneas, fluorescent measurement of extract; conditions: epi-off; 0.1% solution; ultrasound 40 kHz, mechanical index 0.2, for 5 minutes or less
Experimental: Riboflavin-5-Phosphate (R5P), 1.5 mL, 0.1% solution was applied to a porcine eyeball, epi-off. The ultrasound parameters were 40 kHz, mechanical index 0.2. The cornea was in full contact with R5P over indicated time period. The cornea was excised and weighed. Extracted supernatant with R5P was used for fluorescent measurement.

[2] = system: experimental autoimmune uveitis (EAU); experiment: In vivo delivery of dexamethasone into mice eyes for treatment of experimental autoimmune uveitis (ultrasound versus intravitreal injection)
Experimental: The procedure relates to an in vivo study of delivering small molecules into mice eyes for treatment of experimental autoimmune uveitis (EAU). The small molecules used were dexamethasone, with of a molecular weight of about […]. For a given animal subject, the drug was delivered via intravitreal injection (10 μg in 1 μL balanced salt solution), to the left eye. For the right eye, the drug (10 μg in 1 μL balanced salt solution, repeat 3 times) was delivered by 40 kHz ultrasound.
A timeline is illustrated of the experimental procedure. EAU mice were provided as described. The final n=2, as one mouse was dead on day 10 during the first treatment. On day 0, EAU induction occurred. Baseline imaging by confocal scanning laser ophthalmology (cSLO) and optical coherence tomography (OCT) occurred on day 0. On day 10, the drug was applied via ultrasound on the right eye. The drug was applied via intravitreal injection to the left eye. On day 13, imaging was conducted via cSLO and OCT. On days 13, 17, and 20, the drug was delivered to the right eye via ultrasound. On day 21, the mice were sacrificed for histology. Imaging was conducted by cSLO and OCT.

[3] = Ultrasound delivery of riboflavin into ex vivo pig corneas; design: species or system porcine
Experimental: For example, a riboflavin molecule may be delivered into a cornea by ultrasound. An ex vivo study was conducted of delivering small molecules into porcine corneal tissue. The small molecules used was riboflavin. The small molecules may have a molecular weight of about 376 g/mol or less. By using ultrasound at 40 kHz, at least 15 μg/mL of riboflavin was delivered into the deep corneal stromal tissue.
An illustration is provided of riboflavin 1 mg/mL delivered into ex vivo pig corneas. The riboflavin concentration in μg/mL is shown for different circumstances, such as epithelium debrided (Epi-off) cornea with 30 minutes riboflavin contact, Epi-Off with 3 cycles of 90 seconds ultrasound+15 minutes breaks in between and Epi-Off with 3 cycles of 90 seconds ultrasound+5 minutes break in between. 0.1% Riboflavin solution, Peschke D was delivered in ex-vivo pig corneas. The 15 μg/mL safety threshold is exceeded by applying 3 cycles of 90 seconds ultrasound with 5 minute breaks in between.

Compound: Cc1cc2nc3c(=O)[nH]c(=O)nc-3n(C[C@H](O)[C@H](O)[C@H](O)COP(=O)(O)O)c2cc1C [Riboflavin-5-Phosphate]
- concentration delivered into porcine corneas compared with typical Dresden protocol (30 minutes instillation) [1]: reached the therapeutic threshold

Compound: C[C@@H]1C[C@H]2[C@@H]3CCC4=CC(=O)C=C[C@]4(C)[C@@]3(F)[C@@H](O)C[C@]2(C)[C@@]1(O)C(=O)CO [dexamethasone]
- retina injury (FFA photo and OCT sections) ([2]; left eye, intravitreal injection 10 μg in 1 μL, retinal change still existed at day 21): retina injury caused by intravitreal injection
- retina injury (fundus photos, FFA) ([2]; right eye of Mouse 1 and Mouse 2, drug delivered by 40 kHz ultrasound, days 13 and 21): no injury of retina

Compound: Cc1cc2nc3c(=O)[nH]c(=O)nc-3n(C[C@H](O)[C@H](O)[C@H](O)CO)c2cc1C [riboflavin]
- riboflavin concentration in cornea versus 15 μg/mL safety threshold ([3]; ex vivo pig cornea, Epi-Off, 0.1% riboflavin solution, 3 cycles of 90 seconds ultrasound with 5 minute breaks in between): > 15 µg/mL
- riboflavin delivered into the deep corneal stromal tissue ([3]; ex vivo porcine cornea, ultrasound at 40 kHz): at least 15 μg/mL
